Results taken from ChEMBL document CHEMBL3044789, “Comparing weed and crop seedling response to pre-emergence pendimethalin application in Corchorus olitorius and Abelmoschus esculentus” (Crop Prot, 2006).

Columns and labels:
Calopogonium mucunoides [1] = test: Herbicidal activity against Calopogonium mucunoides in Abelmoschus esculentus plots assessed as major weed growth at 0.33 kg a.i/ha after 2 weeks; format: functional
Calopogonium mucunoides [2] = test: Herbicidal activity against Calopogonium mucunoides in Corchorus olitorius plots assessed as weed cover at 0.66 kg a.i/ha after 4 weeks (reference value: 20.1+/- 0.57 %); format: functional
Euphorbia heterophylla [3] = test: Herbicidal activity against Euphorbia heterophylla in Abelmoschus esculentus plots assessed as weed cover at 0.33 kg a.i/ha after 4 weeks (reference value: 22.6 +/- 0.49 %); format: functional
Synedrella nodiflora [4] = test: Herbicidal activity against Synedrella nodiflora in Abelmoschus esculentus plots assessed as weed cover at 0.99 kg a.i/ha after 2 weeks (reference value: 63.5 +/- 0.29 %); format: functional
Synedrella nodiflora [5] = test: Herbicidal activity against Synedrella nodiflora in Corchorus olitorius plots assessed as major weed growth at 0.99 kg a.i/ha after 2 weeks; format: functional
Ageratum conyzoides = test: Herbicidal activity against Ageratum conyzoides in Corchorus olitorius plots assessed as major weed growth at 0.33 kg a.i/ha after 2 weeks; format: functional
Euphorbia heterophylla [6] = test: Herbicidal activity against Euphorbia heterophylla in Abelmoschus esculentus plots assessed as weed cover at 0.99 kg a.i/ha after 7 weeks (reference value: 14.7 +/- 0.46 %); format: functional
Euphorbia heterophylla [7] = test: Herbicidal activity against Euphorbia heterophylla in Corchorus olitorius plots assessed as weed cover at 0.99 kg a.i/ha after 7 weeks (reference value: 1.7 +/- 0.56 %); format: functional
Euphorbia heterophylla [8] = test: Herbicidal activity against Euphorbia heterophylla in Abelmoschus esculentus plots assessed as weed cover at 0.33 kg a.i/ha after 7 weeks (reference value: 14.7 +/- 0.46 %); format: functional
Abelmoschus esculentus [9] = test: Phytotoxicity in Abelmoschus esculentus assessed as shoot length at 0.33 kg a.i/ha treated to soil after 7 weeks (reference value: 8.5 +/- 0.34 mm); format: organism-based; conditions: in vivo, other, 1176 h
Corchorus olitorius [10] = test: Phytotoxicity in Corchorus olitorius assessed as root length at 1.32 kg a.i/ha applied as solution after 7 weeks (reference value: 14.3 +/- 1.06 mm); format: organism-based; conditions: in vivo, other, 1176 h
Abelmoschus esculentus [11] = test: Phytotoxicity in Abelmoschus esculentus assessed as root length at 0.66 kg a.i/ha treated to soil after 7 weeks (reference value: 2.9 +/- 0.45 mm); format: organism-based; conditions: in vivo, other, 1176 h
Corchorus olitorius [12] = test: Phytotoxicity in Corchorus olitorius assessed as root length at 0.66 kg a.i/ha applied as solution after 7 weeks (reference value: 14.3 +/- 1.06 mm); format: organism-based; conditions: in vivo, other, 1176 h
Corchorus olitorius [13] = test: Phytotoxicity in Corchorus olitorius assessed as root length at 0.33 kg a.i/ha applied as solution after 7 weeks (reference value: 14.3 +/- 1.06 mm); format: organism-based; conditions: in vivo, other, 1176 h
Corchorus olitorius [14] = test: Phytotoxicity in Corchorus olitorius assessed as shoot length at 0.33 kg a.i/ha applied as solution after 7 weeks (reference value: 22.9 +/- 0.8 mm); format: organism-based; conditions: in vivo, other, 1176 h
Corchorus olitorius [15] = test: Phytotoxicity in Corchorus olitorius assessed as seed germination at 1.32 kg a.i/ha applied as solution after 7 weeks relative to untreated control; format: organism-based; conditions: in vivo, other, 1176 h
Corchorus olitorius [16] = test: Phytotoxicity in Corchorus olitorius assessed as seed germination at 0.66 kg a.i/ha applied as solution after 7 weeks relative to untreated control; format: organism-based; conditions: in vivo, other, 1176 h
Synedrella nodiflora [17] = test: Herbicidal activity against Synedrella nodiflora in Corchorus olitorius plots assessed as weed recovery at 1.32 kg a.i/ha after 2 weeks (reference value: 78.3 +/- 0.74 %); format: functional
Calopogonium mucunoides [18] = test: Herbicidal activity against Calopogonium mucunoides in Corchorus olitorius plots assessed as weed cover at 0.66 kg a.i/ha after 7 weeks (reference value: 1.7 +/- 0.56 %); format: functional
Asteraceae = test: Herbicidal activity against Aspilia africana in Corchorus olitorius plots assessed as weed cover at 0.66 kg a.i/ha after 7 weeks (reference value: 1.7 +/- 0.56 %); format: functional
Abelmoschus esculentus [19] = test: Phytotoxicity in Abelmoschus esculentus assessed as seedling injury at 0.66 kg a.i/ha applied as solution after 7 weeks relative to control; format: organism-based; conditions: in vivo, other, 1176 h
Talinum fruticosum [20] = test: Herbicidal activity against Talinum fruticosum in Corchorus olitorius plots assessed as weed cover at 0.99 kg a.i/ha after 2 weeks (reference value: 81.7 +/- 0.43 %); format: functional
Synedrella nodiflora [21] = test: Herbicidal activity against Synedrella nodiflora in Corchorus olitorius plots assessed as weed cover at 0.66 kg a.i/ha after 2 weeks (reference value: 81.7 +/- 0.43 %); format: functional
[22] = tested on: Rottboellia cochinchinensis; test: Herbicidal activity against Rottboellia cochinchinensis in Corchorus olitorius plots assessed as weed cover at 0.33 kg a.i/ha after 2 weeks (reference value: 81.7 +/- 0.43 %); format: functional
Calopogonium mucunoides [23] = test: Herbicidal activity against Calopogonium mucunoides in Corchorus olitorius plots assessed as weed cover at 0.33 kg a.i/ha after 2 weeks (reference value: 81.7 +/- 0.43 %); format: functional
Abelmoschus esculentus [24] = test: Phytotoxicity in Abelmoschus esculentus assessed as crop seedling injury at 0.99 kg a.i/ha after 2 weeks relative to untreated control; format: organism-based; conditions: in vivo, 336 h
Abelmoschus esculentus [25] = test: Phytotoxicity in Abelmoschus esculentus assessed as shoot length at 1.32 kg a.i/ha applied as solution after 7 weeks (reference value: 28.7 +/- 0.34 mm); format: organism-based; conditions: in vivo, other, 1176 h
Abelmoschus esculentus [26] = test: Phytotoxicity in Abelmoschus esculentus assessed as seed germination at 1.32 kg a.i/ha applied as solution after 7 weeks (reference value: 85.7 +/- 0.36 %); format: organism-based; conditions: in vivo, other, 1176 h
Abelmoschus esculentus [27] = test: Phytotoxicity in Abelmoschus esculentus assessed as shoot length at 1.32 kg a.i/ha treated to soil after 7 weeks (reference value: 8.5 +/- 0.34 mm); format: organism-based; conditions: in vivo, other, 1176 h
Euphorbia heterophylla [28] = test: Herbicidal activity against Euphorbia heterophylla in Corchorus olitorius plots assessed as weed cover at 0.66 kg a.i/ha after 4 weeks (reference value: 20.1+/- 0.57 %); format: functional
Corchorus olitorius [29] = test: Phytotoxicity in Corchorus olitorius assessed as seedling emergence at 0.33 kg a.i/ha treated to soil after 7 weeks (reference value: 95 +/- 0.05 %); format: organism-based; conditions: in vivo, other, 1176 h
Calopogonium mucunoides [30] = test: Herbicidal activity against Calopogonium mucunoides in Abelmoschus esculentus plots assessed as weed recovery at 0.99 kg a.i/ha after 2 weeks (reference value: 60.1 +/- 0.46 %); format: functional
Talinum fruticosum [31] = test: Herbicidal activity against Talinum fruticosum in Abelmoschus esculentus plots assessed as weed recovery at 0.99 kg a.i/ha after 2 weeks (reference value: 60.1 +/- 0.46 %); format: functional
Cyperus rotundus = test: Herbicidal activity against Cyperus rotundus in Abelmoschus esculentus plots assessed as weed recovery at 0.66 kg a.i/ha after 2 weeks (reference value: 60.1 +/- 0.46 %); format: functional
Calopogonium mucunoides [32] = test: Herbicidal activity against Calopogonium mucunoides in Abelmoschus esculentus plots assessed as weed recovery at 0.33 kg a.i/ha after 2 weeks (reference value: 60.1 +/- 0.46 %); format: functional
Chromolaena odorata = test: Herbicidal activity against Chromolaena odorata in Corchorus olitorius plots assessed as weed cover at 1.32 kg a.i/ha after 2 weeks (reference value: 81.7 +/- 0.43 %); format: functional

For `CCC(CC)Nc1c([N+](=O)[O-])cc(C)c(C)c1[N+](=O)[O-]` [PENDIMETHALIN], the Activity (Calopogonium mucunoides [1]) was 31 /m2, the Activity (Calopogonium mucunoides [2]) was 63.3% and the Activity (Euphorbia heterophylla [3]) was 53.8%. For the same molecule, the Activity (Synedrella nodiflora [4]) was 47.9%, the Activity (Synedrella nodiflora [5]) was 31 /m2 and the Activity (Ageratum conyzoides) was 31 /m2. It also gave an Activity (Euphorbia heterophylla [6]) of 83.9%, an Activity (Euphorbia heterophylla [7]) of 95% and an Activity (Euphorbia heterophylla [8]) of 90%. For the same molecule, the Activity (Abelmoschus esculentus [9]) was 8.6 mm, the Activity (Corchorus olitorius [10]) was 2.4 mm and the Activity (Abelmoschus esculentus [11]) was 1.4 mm. For the same molecule, the Activity (Corchorus olitorius [12]) was 2.6 mm, the Activity (Corchorus olitorius [13]) was 3.1 mm and the Activity (Corchorus olitorius [14]) was 7 mm. The Activity (Corchorus olitorius [15]) was 68.3%, the Activity (Corchorus olitorius [16]) was 84.7% and the Activity (Synedrella nodiflora [17]) was 13.3%. It also gave an Activity (Calopogonium mucunoides [18]) of 100%, an Activity (Asteraceae) of 100% and an Activity (Abelmoschus esculentus [19]) of 39.2%. For the same molecule, the Activity (Talinum fruticosum [20]) was 51.7%, the Activity (Synedrella nodiflora [21]) was 51.7% and the Activity [22] was 63.3%. For the same molecule, the Activity (Calopogonium mucunoides [23]) was 63.3%, the Activity (Abelmoschus esculentus [24]) was 47.9% and the Activity (Abelmoschus esculentus [25]) was 14.6 mm. The Activity (Abelmoschus esculentus [26]) was 40.2%, the Activity (Abelmoschus esculentus [27]) was 3.6 mm and the Activity (Euphorbia heterophylla [28]) was 63.3%. It also gave an Activity (Corchorus olitorius [29]) of 85%, an Activity (Calopogonium mucunoides [30]) of 36.2% and an Activity (Talinum fruticosum [31]) of 36.2%. For the same molecule, the Activity (Cyperus rotundus) was 47.9%, the Activity (Calopogonium mucunoides [32]) was 39.2% and the Activity (Chromolaena odorata) was 41.7%.
